System: relapsed or refractory DLBCL
Experiment: Compound A treatment of relapsed or refractory DLBCL patients stratified by 26-gene (Table 2) classifier: PFS and tumor measurement
Assay type: in vivo, human
Settings: for PFS: Compound A treatment (FIG. 3)
From the text: In another exemplary study, a computational decision function was applied to gene expression values for the 26 genes in Table 2 to predict the positive/negative outcome sub-group membership of relapsed or refractory DLBCL patients for responsiveness to Compound A treatment alone or in combination with other agents.
The response to Compound A treatment of each of a group of relapsed or refractory DLBCL patients was predicated based on the gene expression levels of 26 genes of Table 2, and the group of patients were classified into two populations—the population predicted to be responsive to Compound A treatment (26 genes positive population) and the other population predicted to be not responsive to Compound A (26 genes negative population).
The expression levels of the 26 genes were measured as follows: DLBCL lymph-node biopsies were formalin fixed and paraffin embedded. Nucleic acids obtained from the tissues were extracted using the Roche High Pure FPPET kit, according to the manufacturer's instructions. The RNA was quantitated using spectrophotometry (NanoDrop, Thermo Science, DE). Gene expression on approximately 200 nanograms of RNA was used to determine gene expression levels by means of NanoString technology (NanoString Technologies, WA). The total RNA was hybridized to the custom codesets at 65° C. overnight. The reaction was processed on the nCounter™ Prep Station and gene expression data was then acquired on the nCounter™ Digital Analyzer.
Then, the patients' response to Compound A treatment were measured by progression free survival (PFS). The results are shown in FIG. 3, and as shown, that there is a significant benefit, as measured by PFS, of 26 gene positive population (upper line) as compared to 26 genes negative population (lower line) (PFS 17.43 weeks in 26 genes positive population versus PFS 6.57 weeks in 26 genes negative population).
Additionally, the response to Compound A of DLBCL patients with historically poor prognosis was measured by Nanostring. […] This is comparison to patients in the 26 genes positive population (blue line), in which 4 patients obtained a durable clinical response of greater than 50% decrease in tumor size (see FIG. 8). Similar results were observed when examining patients with primary refractory DLBCL that had also had at least 3 or more prior lines of therapy (see FIG. 9).

Cc1nc2cccc(N)c2c(=O)n1C1CCC(=O)NC1=O (centres unmarked) [Compound A, 3-(5-amino-2-methyl-4-oxo-4H-quinazolin-3-yl)-piperidine-2,6-dione]
PFS at 6 months (26 genes negative population): 5.4% | PFS (26 genes negative population): 6.57 weeks | PFS at 6 months (26 genes positive population): 44.6% | PFS (26 genes positive population): 17.43 weeks | median PFS (ABC subtype of DLBCL (FIG. 7)): 12.1 weeks | median PFS (GCB subtype of DLBCL (FIG. 7)): 15.6 weeks | tumor measurement, clinical response (majority of patients in the 26 genes negative population (FIG. 5)): rapid progression or short responses | tumor measurement, clinical response (majority of patients in the 26 genes positive population (FIG. 4)): clinical response of greater than 50% decrease in tumor size and/or have stable disease | tumor measurement, clinical course (primary refractory disease (less than complete response to R-CHOP), 26 genes negative population (FIG. 8)): experienced rapid progression | patients who obtained a durable clinical response of greater than 50% decrease in tumor size (primary refractory disease (less than complete response to R-CHOP), 26 genes positive population (FIG. 8)): 4 patients | median PFS (unclassified subtype of DLBCL (FIG. 7)): 7 weeks

Reference: patent US10689708B2, “Methods for treating diffuse large B-cell lymphoma and the use of biomarkers as a predictor of responsiveness to drugs” (Celgene Corporation, priority 2015, dated 2020)
